From patent US20040014047A1, “Antisense modulation of LIM domain kinase 1 expression” (Isis Pharmaceuticals Inc., priority 2002, published 2004)
Strand notation (5' to 3'): a small letter for the sugar, then the base; units joined by * are phosphorothioate-linked, units joined directly phosphodiester-linked; [ ] holds rarer units or linkages, { } end groups; capitals alone tell only the bases. e = 2'-O-(2-methoxyethyl) (MOE); [5mC] = 5-methylcytosine; d = 2'-deoxy (DNA)

Test system: human LIM domain kinase 1 mRNA
Assay: Antisense inhibition of human LIM domain kinase 1 mRNA levels, quantitative real-time PCR, A549 cells (screen)
Format: cell-based
Conditions: quantitative real-time PCR, averages from two experiments, screening concentration not given (50 nM to 300 nM used herein)
Method: When cells reached 70% confluency, they were treated with oligonucleotide. […] Cells were harvested 16-24 hours after oligonucleotide treatment.
Vacuum was applied for 1 minute.
PCR reagents were obtained from Invitrogen Corporation, (Carlsbad, Calif.).
Total RNA is quantified using RiboGreenTM RNA quantification reagent from Molecular Probes.
Probes and primers to human LIM domain kinase 1 were designed to hybridize to a human LIM domain kinase 1 sequence, using published sequence information (GenBank accession number D26309.1, incorporated herein as SEQ ID NO:4). For human LIM domain kinase 1 the PCR primers were: forward primer: […] (SEQ ID NO: 5) reverse primer: […] (SEQ ID NO: 6) and the PCR probe was: FAM-[…]-TAMRA (SEQ ID NO: 7) where FAM is the fluorescent dye and TAMRA is the quencher dye.
All cytidine residues are 5-methylcytidines. […] Data are averages from two experiments in which A549 cells were treated with the oligonucleotides of the present invention. […] If present, “N.D.” indicates “no data”.

In order of rising “% INHIB (inhibition of human LIM domain kinase 1 mRNA levels)” value:
1. 206216 (antisense eT*e[5mC]*eA*e[5mC]*eA*dG*dT*dT*dT*dT*dA*dA*dT*dA*d[5mC]*eT*eT*e[5mC]*e[5mC]*eT) [compound 206216]  0%
2. 206226 (antisense eT*eA*eG*eG*eT*d[5mC]*d[5mC]*d[5mC]*dA*d[5mC]*dA*dG*d[5mC]*d[5mC]*d[5mC]*e[5mC]*eT*eG*eA*eG) [compound 206226]  9%
3. 206213 (antisense e[5mC]*e[5mC]*e[5mC]*eT*eG*dA*dG*dG*d[5mC]*dT*dT*dG*dG*dT*dA*e[5mC]*e[5mC]*eT*eG*e[5mC]) [compound 206213]  14%
4. 206221 (antisense eT*e[5mC]*e[5mC]*e[5mC]*eA*d[5mC]*d[5mC]*dT*d[5mC]*d[5mC]*d[5mC]*dT*dA*dA*dG*eT*e[5mC]*eA*eT*eG) [compound 206221]  17%
5. 206206 (antisense e[5mC]*eG*e[5mC]*e[5mC]*eG*dG*dT*dA*dG*dG*dT*d[5mC]*dT*d[5mC]*d[5mC]*e[5mC]*eA*eG*eA*eA) [compound 206206]  28%
6. 206218 (antisense eT*eG*eA*eG*eA*dA*dA*dG*d[5mC]*dT*dT*d[5mC]*dA*d[5mC]*dA*eG*eT*eT*eT*eT) [compound 206218]  43%
7. 206236 (antisense e[5mC]*eT*eG*eG*eA*d[5mC]*d[5mC]*dT*dA*d[5mC]*d[5mC]*dT*d[5mC]*dG*d[5mC]*eA*e[5mC]*eA*eG*eG) [compound 206236]  43%
8. 206235 (antisense eT*eA*eG*e[5mC]*eT*dG*dG*dG*dA*dT*dT*dA*d[5mC]*dA*dG*eT*eA*e[5mC]*eT*eA) [compound 206235]  53%
9. 206238 (antisense eG*e[5mC]*eA*eT*eG*dA*dA*dG*dG*d[5mC]*dA*d[5mC]*dT*dA*d[5mC]*e[5mC]*eT*e[5mC]*e[5mC]*e[5mC]) [compound 206238]  53%
10. 206203 (antisense eT*eT*eG*eT*eG*dG*dG*dA*dG*dT*dT*dG*dA*dG*dG*eT*e[5mC]*eT*e[5mC]*eG) [compound 206203]  55%
11. 206211 (antisense eT*e[5mC]*eT*eG*e[5mC]*d[5mC]*d[5mC]*dT*dG*dA*dT*dG*dT*dG*d[5mC]*eG*e[5mC]*e[5mC]*e[5mC]*eT) [compound 206211]  59%
12. 206220 (antisense e[5mC]*eA*eA*eA*eG*dT*dG*d[5mC]*dA*d[5mC]*dT*dG*dA*dG*dA*eA*eA*eG*e[5mC]*eT) [compound 206220]  59%
13. 206234 (antisense e[5mC]*eA*eT*eT*e[5mC]*dT*dT*dG*dT*dT*d[5mC]*dT*dG*dG*dG*eA*eA*eG*eG*eT) [compound 206234]  61%
14. 206223 (antisense eG*eG*eT*eG*eT*dG*dT*d[5mC]*dA*d[5mC]*d[5mC]*dT*dT*dG*dA*eT*eA*eG*e[5mC]*e[5mC]) [compound 206223]  62%
15. 206237 (antisense eG*eT*e[5mC]*e[5mC]*eT*dG*d[5mC]*d[5mC]*d[5mC]*d[5mC]*dA*d[5mC]*dA*dG*dA*e[5mC]*eT*e[5mC]*eA*eG) [compound 206237]  62%
16. 206222 (antisense eG*eG*eT*eG*eG*dG*dT*d[5mC]*d[5mC]*d[5mC]*dA*d[5mC]*d[5mC]*dT*d[5mC]*e[5mC]*e[5mC]*eT*eA*eA) [compound 206222]  63%
17. 206224 (antisense eG*e[5mC]*eT*eG*e[5mC]*dT*dG*d[5mC]*dA*dG*d[5mC]*d[5mC]*dG*dT*dA*eT*eG*eA*eA*eA) [compound 206224]  66%
18. 206229 (antisense eG*eT*e[5mC]*eA*e[5mC]*dA*dA*d[5mC]*dA*d[5mC]*d[5mC]*dT*dG*d[5mC]*dA*eG*eG*eA*eG*eA) [compound 206229]  66%
19. 206217 (antisense eA*eA*eG*e[5mC]*eT*dT*d[5mC]*dA*d[5mC]*dA*dG*dT*dT*dT*dT*eA*eA*eT*eA*e[5mC]) [compound 206217]  68%
20. 206227 (antisense e[5mC]*eT*e[5mC]*eA*eG*dA*d[5mC]*d[5mC]*d[5mC]*dT*dT*dG*dA*dG*dT*eT*eA*e[5mC]*eT*eG) [compound 206227]  68%
21. 206202 (antisense eG*eT*e[5mC]*eT*e[5mC]*dG*dG*dT*dG*dG*dA*dT*dG*dA*dT*eG*eT*eT*e[5mC]*eA) [compound 206202]  69%
22. 206228 (antisense eA*e[5mC]*eT*eG*e[5mC]*d[5mC]*dT*d[5mC]*dT*d[5mC]*dG*dG*dG*dT*dT*e[5mC]*eA*eA*eG*e[5mC]) [compound 206228]  69%
23. 206205 (antisense eA*eA*eA*eG*eG*dA*dT*dG*dG*d[5mC]*d[5mC]*dT*d[5mC]*dT*dT*e[5mC]*eT*e[5mC]*eG*eG) [compound 206205]  74%
24. 206225 (antisense eG*eG*eA*eG*eT*dG*dA*dA*dA*dG*d[5mC]*dA*d[5mC]*d[5mC]*d[5mC]*eA*eG*e[5mC]*eT*eG) [compound 206225]  74%
25. 206230 (antisense e[5mC]*e[5mC]*eA*eG*eG*dT*dG*dA*dG*dT*dG*dT*dG*d[5mC]*dA*eA*eG*eG*e[5mC]*eA) [compound 206230]  74%
26. 206215 (antisense eG*e[5mC]*eA*eG*e[5mC]*dT*dG*d[5mC]*dT*dG*d[5mC]*dT*dG*d[5mC]*dA*eG*e[5mC]*e[5mC]*eG*eT) [compound 206215]  75%
27. 206231 (antisense eG*e[5mC]*eA*eG*eT*dG*d[5mC]*d[5mC]*d[5mC]*dG*d[5mC]*dT*dG*d[5mC]*dA*eA*eG*eA*eG*e[5mC]) [compound 206231]  76%
28. 206208 (antisense e[5mC]*e[5mC]*eA*e[5mC]*e[5mC]*dT*d[5mC]*d[5mC]*d[5mC]*dG*d[5mC]*dG*dG*dA*dG*eG*eA*eA*eT*e[5mC]) [compound 206208]  79%
29. 206207 (antisense eG*eT*eG*eG*e[5mC]*d[5mC]*d[5mC]*dT*dG*dG*d[5mC]*dT*d[5mC]*dA*dG*eT*e[5mC]*eG*eG*eG) [compound 206207]  80%
30. 206209 (antisense e[5mC]*eT*e[5mC]*eT*eG*dG*dG*d[5mC]*d[5mC]*dA*d[5mC]*dG*dG*d[5mC]*dA*eG*eA*eG*eA*eG) [compound 206209]  80%
31. 206233 (antisense eG*eG*eT*e[5mC]*e[5mC]*dT*dT*dG*d[5mC]*dG*d[5mC]*dT*dG*dG*dG*eA*eG*eG*e[5mC]*e[5mC]) [compound 206233]  80%
32. 206204 (antisense e[5mC]*eA*eT*eT*e[5mC]*dT*dT*dG*dT*dT*d[5mC]*dT*d[5mC]*dG*d[5mC]*eG*eG*eA*e[5mC]*e[5mC]) [compound 206204]  81%
33. 206232 (antisense eA*eT*eG*e[5mC]*eT*dG*d[5mC]*dA*dG*d[5mC]*dT*d[5mC]*d[5mC]*dT*d[5mC]*e[5mC]*eT*eG*eG*eG) [compound 206232]  81%
34. 206210 (antisense e[5mC]*e[5mC]*eT*e[5mC]*e[5mC]*dA*dG*dG*dG*dA*dG*d[5mC]*dT*dA*dT*eG*eG*eA*e[5mC]*e[5mC]) [compound 206210]  83%

Same assay, conditions: real-time PCR, bound stated

“aaaggatggcctcttctcgg (eA*eA*eA*eG*eG*dA*dT*dG*dG*d[5mC]*d[5mC]*dT*d[5mC]*dT*dT*e[5mC]*eT*e[5mC]*eG*eG; antisense) [ISIS 206205]” was tested, and the “inhibition of human LIM domain kinase 1 expression (text summary of Table 1)” value (shortened to “inhibition … (text summary of Table 1)”) was “at least 65%”.
“aacctcatgcactcgacggg (eA*eA*e[5mC]*e[5mC]*eT*d[5mC]*dA*dT*dG*d[5mC]*dA*d[5mC]*dT*d[5mC]*dG*eA*e[5mC]*eG*eG*eG; antisense) [ISIS 206161]” was tested, and the “inhibition … (text summary of Table 1)” value was “at least 65%”.
“aagcttcacagttttaatac (eA*eA*eG*e[5mC]*eT*dT*d[5mC]*dA*d[5mC]*dA*dG*dT*dT*dT*dT*eA*eA*eT*eA*e[5mC]; antisense) [ISIS 206217]” was tested, and the “inhibition … (text summary of Table 1)” value was “at least 65%”.
In the case of “acatctgggctcatgcagcc (eA*e[5mC]*eA*eT*e[5mC]*dT*dG*dG*dG*d[5mC]*dT*d[5mC]*dA*dT*dG*e[5mC]*eA*eG*e[5mC]*e[5mC]; antisense) [ISIS 206180]”, the “inhibition … (text summary of Table 1)” value is reported as “at least 65%”.
With “actgcctctcgggttcaagc (eA*e[5mC]*eT*eG*e[5mC]*d[5mC]*dT*d[5mC]*dT*d[5mC]*dG*dG*dG*dT*dT*e[5mC]*eA*eA*eG*e[5mC]; antisense) [ISIS 206228]” the “inhibition … (text summary of Table 1)” value was “at least 65%”.
In the case of “agcttggagtgctccaccag (eA*eG*e[5mC]*eT*eT*dG*dG*dA*dG*dT*dG*d[5mC]*dT*d[5mC]*d[5mC]*eA*e[5mC]*e[5mC]*eA*eG; antisense) [ISIS 206177]”, the “inhibition … (text summary of Table 1)” value is reported as “at least 65%”.
